These are literature values, as cited in article PMC5447021, “TNF Lectin-Like Domain Restores Epithelial Sodium Channel Function in Frameshift Mutants Associated with Pseudohypoaldosteronism Type 1B” (Frontiers in Immunology, 2017).

The structures appear in SMILES notation.

The target of one data set is T1, αβγ-hENaC (Homo sapiens, UniProt P37088+P51168+P51170).
T1 construct: expressed in transfected cells; host or cells: HEK-293
T1 sequence (P37088 1-669): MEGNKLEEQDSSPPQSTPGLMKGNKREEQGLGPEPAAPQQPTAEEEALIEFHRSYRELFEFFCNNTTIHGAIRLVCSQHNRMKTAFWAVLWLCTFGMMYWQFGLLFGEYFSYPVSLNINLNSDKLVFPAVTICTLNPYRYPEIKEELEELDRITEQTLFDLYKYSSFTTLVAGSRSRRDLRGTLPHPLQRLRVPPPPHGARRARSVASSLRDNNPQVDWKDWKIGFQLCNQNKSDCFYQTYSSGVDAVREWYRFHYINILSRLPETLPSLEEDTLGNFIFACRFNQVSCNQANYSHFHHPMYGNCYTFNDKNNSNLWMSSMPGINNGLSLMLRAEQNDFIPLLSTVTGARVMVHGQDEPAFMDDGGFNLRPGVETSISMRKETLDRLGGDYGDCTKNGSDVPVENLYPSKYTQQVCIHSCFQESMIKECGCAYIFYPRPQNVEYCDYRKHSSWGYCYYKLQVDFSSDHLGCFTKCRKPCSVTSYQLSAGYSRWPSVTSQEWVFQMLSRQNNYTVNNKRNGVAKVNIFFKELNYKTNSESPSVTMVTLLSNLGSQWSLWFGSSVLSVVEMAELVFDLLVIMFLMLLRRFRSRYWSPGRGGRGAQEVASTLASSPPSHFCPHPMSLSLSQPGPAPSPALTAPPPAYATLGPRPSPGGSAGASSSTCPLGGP
T1 sequence (P51168 1-640 partner): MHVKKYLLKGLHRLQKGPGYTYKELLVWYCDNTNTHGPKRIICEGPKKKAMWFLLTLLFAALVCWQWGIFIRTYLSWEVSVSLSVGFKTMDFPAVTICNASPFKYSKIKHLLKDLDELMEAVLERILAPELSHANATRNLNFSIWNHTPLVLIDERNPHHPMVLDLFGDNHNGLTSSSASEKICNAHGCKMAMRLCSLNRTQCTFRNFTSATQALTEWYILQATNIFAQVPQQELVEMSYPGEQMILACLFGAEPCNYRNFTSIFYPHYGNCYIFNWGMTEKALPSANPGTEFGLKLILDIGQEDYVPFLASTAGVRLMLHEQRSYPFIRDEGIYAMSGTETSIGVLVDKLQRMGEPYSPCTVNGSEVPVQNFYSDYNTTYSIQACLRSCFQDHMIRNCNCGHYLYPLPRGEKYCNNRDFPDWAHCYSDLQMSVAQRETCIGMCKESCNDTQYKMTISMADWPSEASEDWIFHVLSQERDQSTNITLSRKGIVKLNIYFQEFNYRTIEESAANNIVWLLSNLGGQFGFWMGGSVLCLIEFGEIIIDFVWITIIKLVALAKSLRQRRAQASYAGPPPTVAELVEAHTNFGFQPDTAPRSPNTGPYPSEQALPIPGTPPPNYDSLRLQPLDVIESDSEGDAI
T1 sequence (P51170 1-649 partner): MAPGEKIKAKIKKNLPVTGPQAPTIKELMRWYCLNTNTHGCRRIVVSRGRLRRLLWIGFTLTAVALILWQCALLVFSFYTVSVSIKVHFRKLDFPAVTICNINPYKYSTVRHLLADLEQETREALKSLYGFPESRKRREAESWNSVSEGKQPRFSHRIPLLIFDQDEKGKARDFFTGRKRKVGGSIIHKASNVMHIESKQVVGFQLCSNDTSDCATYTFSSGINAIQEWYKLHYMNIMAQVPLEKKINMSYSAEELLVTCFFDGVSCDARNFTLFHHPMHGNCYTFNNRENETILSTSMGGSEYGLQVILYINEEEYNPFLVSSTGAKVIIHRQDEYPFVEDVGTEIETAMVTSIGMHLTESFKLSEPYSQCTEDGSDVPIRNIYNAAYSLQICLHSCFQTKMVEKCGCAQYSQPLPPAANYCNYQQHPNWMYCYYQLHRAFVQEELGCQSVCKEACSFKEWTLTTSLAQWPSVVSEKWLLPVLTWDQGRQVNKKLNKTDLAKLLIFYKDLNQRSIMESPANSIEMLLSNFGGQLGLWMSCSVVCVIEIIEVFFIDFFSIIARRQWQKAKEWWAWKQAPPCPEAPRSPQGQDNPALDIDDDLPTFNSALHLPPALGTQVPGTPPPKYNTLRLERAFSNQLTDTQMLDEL
Set-up: method as in 2 sources, ref 16 = [16]; PMID 24077967; doi:10.1124/mol.113.089409; 16 Shabbir W Scherbaum-Hazemi P Tzotzos S Fischer B Fischer H Pietschmann H Mechanism of action of novel lung edema therapeutic AP301 by activation of the epithelial sodium channel . Mol Pharmacol ( 2 ||| ref 24 = [24]; PMID 20979368; doi:10.1021/jm100767p; 24 Hazemi P Tzotzos SJ Fischer B Andavan GS Fischer H Pietschmann H Essential structural features of TNF-α lectin-like domain derived peptides for activation of amiloride-sensitive sodium current in A. The settings on record: αβγ-hENaC in HEK-293, whole-cell, -100 mV, amiloride-sensitive control current 75.8 ± 4.5 pA, mean ± S.E.; cited from earlier work.

For a further data set, the system named is A549 cells. The conditions noted are these: cited from earlier work.
In data set [1] the test system is pathological conditions involving ENaC. The settings on record: cited from earlier work.
A further data set relates to β-ENaC. The settings on record: HEK-293, 5 and 10 min; cited from earlier work.

Take `C[C@@H]1NC(=O)CNC(=O)[C@H](CCC(=O)O)NC(=O)[C@@H]2CCCN2C(=O)[C@H]([C@@H](C)O)NC(=O)[C@H](CCC(=O)O)NC(=O)[C@H](CCCNC(=N)N)NC(=O)[C@H](CCC(N)=O)NC(=O)CNC(=O)[C@@H](N)CSSC[C@@H](C(=O)O)NC(=O)[C@H](Cc2ccc(O)cc2)NC(=O)[C@H](Cc2c[nH]c3ccccc23)NC(=O)[C@@H]2CCCN2C(=O)[C@H](CCCCN)NC(=O)[C@H](C)NC(=O)[C@H](CCC(=O)O)NC1=O` [solnatide, L-cysteine, L-cysteinylglycyl-L-glutaminyl-L-arginyl-L-α-glutamyl-L-threonyl-L-prolyl-L-α-glutamylglycyl-L-alanyl-L-α-glutamyl-L-alanyl-L-lysyl-L-prolyl-L-tryptophyl-L-tyrosyl-, cyclic (1→17)-disulfide]: on αβγ-hENaC, the “Maximal induced current, solnatide” value is given as 953.2 ± 11.5 pA. Further, the “Increase in single channel parameters after PNGase F” value with A549 cells (A549 cells, PNGase F pretreated) is on record as “completely abolished in PNGase F pretreated cells”. The “Single channel open probability, mean open time, number and duration of bursts” value in the data set on A549 cells (A549 cells) was “significantly increased”. Also, the “Effect on current, A549 cells” value in the data set on A549 cells (endogenous α-, β-, γ-, δ-subunits) was “current activating effect”. Moreover, in data set [1], the “Efficacy in phase II clinical trials” value is reported as “already proven in pathological conditions involving ENaC in phase II clinical trials”. Moreover, in the data set on β-ENaC, the “Membrane abundance, solnatide” value was “only slight”.
